The values below come from patent US20210030895A1, “RESIN COMPOSITION AND MOLDED ARTICLE” (DIC Corporation, priority 2013, published 2021).

Values joined by “and” are separate entries in the source; they are usually repeats but may differ in a detail not shown here. Equal entries are not always repeated. “Also recorded” adds a separate entry of the source. Where two headings read alike, the source gives them in different places.

Holding throughout (format): physicochemical
The nature of series [1]: Eluting test of the material from the material-containing film (ISO10993-10 Annex E, methanol extraction). The method, then:
In Example 1, the operation was performed in the same manner as in Example 1 except that 100 mg of the near infrared fluorescent material A was used, a material-containing TPU film having a thickness of about 300 μm and having a material concentration of the near infrared fluorescent material A of 0.1% by mass was prepared.
An Eluting test of the obtained material-containing TPU film was performed. The eluting operation of the film was performed as follows according to ISO10993-10AnnexE. 5 g of the material-containing TPU film was cut into a size of 2 cm×2 cm, and then was put into a 300 mL conical flask with 100 mL of methanol, followed by shaking at 25° C. of room temperature for 8 hours. Next, the methanol was separated by filtration once, and the resultant product was extracted two times with the same amount of methanol by using the same film fine piece. The methanol extracted liquid obtained by the total three times of operations was concentrated by an evaporator, and the residues were melted with 5 mL of dichloromethane to obtain a test liquid.
The absorption spectrum and the light emission spectrum of the obtained test liquid were measured. As a result, the absorption and the fluorescent derived from the near infrared fluorescent material A could not be confirmed. […] Since the near infrared fluorescent material A was hardly eluted, a medical implant having high safeness which is molded using the resin composition according to the present invention was obtained.

The nature of series [2]: Absorption spectrum of material-containing resin film (spectrophotometer UV3600). The conditions noted are these: PP film, material 10 mg per 100 g PP (Example 2).
Assay in series [3]: as above
The procedure: TPU pellets (Tecoflex EG85A, manufactured by Lubrizol Corp.) (100 g) and a near infrared fluorescent material A (5 mg) synthesized in Preparation Example 1 were mixed, and the mixture was attached to the pellet surfaces.
Next, the pellets were put into Labo Plastomill, and melt-kneaded (kneading) at a set temperature of 190° C. for 10 minutes. Thereafter, the kneaded material-containing resin was taken out, and made to be a film.
The film was obtained in the following manner. First, the material-containing resin was heated for 5 minutes while being sandwiched between iron plates heated to 200° C., and pressed at […] while the steel plates were cooled. […]

The nature of series [4]: Emission (fluorescence) spectrum and fluorescence quantum yield of material-containing resin film (Quantaurus-QY C11347).
[5] abbreviates: TPU film, material 0.1% by mass, about 300 μm, methanol, 25° C., 8 hours, three extractions.
Where [6] appears, read: methanol extract of TPU film, residues in dichloromethane.
Where [7] appears, read: TPU film, material 5 mg per 100 g TPU (0.005% by mass), melt-kneaded at 190° C.
[8] abbreviates: PP film, material 10 mg per 100 g PP (Example 2).

In the case of `CCN1/C(=C\C=C2/CCC(/C=C/c3sc4ccc(Cl)cc4[n+]3CC)=C2N(c2ccccc2)c2ccccc2)Sc2ccc(Cl)cc21` [IR-140, reference compound], in series [1] (setting [5]), the “Presence or absence of material elution” value is on record as “eluted; also recorded: Presence”. Besides, the “Presence or absence of material elution” value in series [1] (TPU film, material 0.1% by mass, about 300 μm, methanol, 25° C., 8 hours, three extractions, listed as Comparative Example 1) is reported as “elutes”. Moreover, in series [1] (setting [6]), the “light emission peak wavelength of the fluorescence spectrum in the test liquid of the eluting test” value came to 846 nm and the “peak wavelength of the absorption spectrum in the test liquid of the eluting test” value is 812 nm.

For `COc1ccc(-c2cc3c(o2)=CC2=C(C(F)(F)F)c4cc5oc(-c6ccc(OC)cc6)cc5n4[B-](F)(F)[N+]=32)cc1` [near infrared fluorescent material A], in series [1] (setting [5]), the “Presence or absence of material elution” value is “hardly eluted; also recorded: Absence”. Besides, the Absorption peak in series [2] and in series [3] (setting [7]) was 730 nm each time. The Fluorescence peak in series [4] (setting [8]) was 810 nm. The Quantum yield is 24% in series [4] (setting [8]) and 26% in series [4] (setting [7]).

On to `CCCCCCCCOc1ccc(-c2c3c4n(c(-c5ccc(OCCCCCCCC)cc5)c3c3n2[B-](F)(F)[n+]2c(sc5cc(C(C)(C)C)ccc52)C=3C#N)[B-](F)(F)[n+]2c(sc3cc(C(C)(C)C)ccc32)C=4C#N)cc1` [near infrared fluorescent material B], for which the “Presence or absence of material elution” value in series [1] is “not eluted; also recorded: Absence”. For the same compound, in series [3], the Absorption peak is 739 nm and 738 nm and 737 nm and 736 nm. For the same compound, in series [4], the Fluorescence peak was 758 nm and 833 nm and 756 nm and 834 nm and 753 nm and 754 am nm and 751 nm and 825 nm; the Quantum yield is 36% and 34% and 39% and 46%.

On to `COc1ccc(-c2cc3c(s2)=CC2=C(C(F)(F)F)c4cc5sc(-c6ccc(OC)cc6)cc5n4[B-](F)(F)[N+]=32)cc1` [near infrared fluorescent material D], for which, in series [1], the “Presence or absence of material elution” value was “not eluted; also recorded: Absence”. In addition, the Absorption peak in series [3] was 737 nm. Also, in series [4], the Fluorescence peak is on record as 765 nm and the Quantum yield is 17%.

Consider `F[B-]1(F)n2c(cc3sc(-c4cccs4)cc32)C(C(F)(F)F)=C2C=c3sc(-c4cccs4)cc3=[N+]21` [near infrared fluorescent material E], for which, in series [1] (setting [5]), the “Presence or absence of material elution” value is “not eluted; also recorded: Absence”. Also, in series [3] (setting [7]), the Absorption peak was determined as 741 nm. In addition, in series [4] (setting [7]), the Fluorescence peak was 772 nm and the Quantum yield worked out at 11%.

Turning to `CCCCCCCCOc1ccc(-c2c3c4n(c(-c5ccc(OCCCCCCCC)cc5)c3c3n2[B-](F)(F)[n+]2c(ccc5cc(C(C)(C)C)ccc52)C=3C#N)[B-](F)(F)[n+]2c(ccc3cc(C(C)(C)C)ccc32)C=4C#N)cc1` [near infrared fluorescent material F], the “Presence or absence of material elution” value in series [1] was “not eluted; also recorded: Absence”. Besides, the Absorption peak in series [3] was 764 nm and 767 nm. In series [4], the Fluorescence peak is 774 nm and 870 nm; the Quantum yield is given as 35%.

Take `CCCCCCCCOc1ccc(-c2c3c4n(c(-c5ccc(OCCCCCCCC)cc5)c3c3n2[B-](c2ccccc2)(c2ccccc2)[n+]2c(C)cc(C)nc2C=3C#N)[B-](c2ccccc2)(c2ccccc2)[n+]2c(C)cc(C)nc2C=4C#N)cc1` [near infrared fluorescent material G]: the “Presence or absence of material elution” value in series [1] is “not eluted; also recorded: Absence”. The compound further had an Absorption peak in series [3] of 756 nm. In series [4], the Fluorescence peak was 778 nm and 870 nm; the Quantum yield turned out to be 35%.

In the case of `CCCCC(CC)COc1ccc(-c2c3c4n(c(-c5ccc(OCC(CC)CCCC)cc5)c3c3n2[B-](c2ccccc2)(c2ccccc2)[n+]2c(oc5ccc(C(C)(C)C)cc52)C=3C#N)[B-](c2ccccc2)(c2ccccc2)[n+]2c(oc3ccc(C(C)(C)C)cc32)C=4C#N)cc1` (stereo not shown) [near infrared fluorescent material H], the “Presence or absence of material elution” value in series [1] was “not eluted; also recorded: Absence”. The Absorption peak in series [3] is 744 nm. Also, in series [4], the Fluorescence peak is 787 nm and 865 nm; the Quantum yield came out at 36%.
